Source: the NIST ThermoML archive (doi:10.1016/j.jct.2008.04.010)
Several values for one entry are separate records, joined by “and”; a condition that tells them apart may be missing. Equal entries are not always repeated.

Assays:
[1] = for vapor or sublimation pressure: Calculated from knudsen effusion weight loss; for Normal melting temperature: DTA
[2] = Molar enthalpy of transition or fusion; conditions: Crystal; DSC
[3] = molar enthalpy of vaporization or sublimation; conditions: 298.15 K; Liquid; Calvet microcalorimetry

c1ccc(-c2cccc(-c3ccc4ccccc4c3)c2)cc1 [2-(biphen-3-yl)naphthalene]
[1], Liquid
Conditions	vapor or sublimation pressure
381.08 K	8.1e-05 kPa and 8.3e-05 kPa
385.17 K	0.000117 kPa
389.15 K	0.000174 kPa
389.17 K	0.000177 kPa
393.18 K	0.000216 kPa and 0.000218 kPa and 0.000223 kPa
397.15 K	0.000323 kPa and 0.000303 kPa
397.17 K	0.000315 kPa
401.14 K	0.00041 kPa and 0.000429 kPa and 0.000427 kPa
405.18 K	0.000546 kPa and 0.000585 kPa and 0.000588 kPa
409.08 K	0.000767 kPa and 0.000773 kPa and 0.00079 kPa
413.17 K	0.001087 kPa and 0.001156 kPa

Conditions	Normal melting temperature [°C]
[1], Crystal	73.2

Conditions	Molar enthalpy of transition or fusion [kcal/mol]
[2]	4.42

c1ccc(-c2ccc3ccccc3c2)cc1 [2-phenylnaphthalene]
[1], Crystal
Conditions	vapor or sublimation pressure
333.11 K	0.000132 kPa and 0.000137 kPa
335.63 K	0.000185 kPa and 0.000183 kPa and 0.00018 kPa
338.2 K	0.000244 kPa and 0.000239 kPa
340.61 K	0.00032 kPa and 0.000316 kPa and 0.000318 kPa
343.13 K	0.00042 kPa and 0.000421 kPa and 0.000419 kPa
345.69 K	0.000558 kPa and 0.000553 kPa and 0.000544 kPa
348.12 K	0.000729 kPa and 0.000707 kPa and 0.000716 kPa
350.62 K	0.000939 kPa and 0.000941 kPa and 0.000909 kPa
353.19 K	0.001212 kPa and 0.001224 kPa and 0.001185 kPa

Conditions	Normal melting temperature [°C]
[1], Crystal	100.4

Conditions	Molar enthalpy of transition or fusion [kcal/mol]
[2]	4.28

c1ccc(-c2ccc(-c3ccc4ccccc4c3)cc2)cc1 [2-(biphen-4-yl)naphthalene]
[1], Crystal
Conditions	vapor or sublimation pressure
405.17 K	6.2e-05 kPa and 6.3e-05 kPa
409.14 K	9.1e-05 kPa and 8.8e-05 kPa and 8.9e-05 kPa
411.18 K	0.000111 kPa and 0.000112 kPa
413.18 K	0.000131 kPa and 0.000135 kPa and 0.000134 kPa
415.14 K	0.000164 kPa and 0.00016 kPa and 0.000161 kPa
417.19 K	0.000197 kPa
419.09 K	0.000237 kPa and 0.000235 kPa and 0.00023 kPa
421.14 K	0.000283 kPa and 0.00028 kPa
423.09 K	0.000339 kPa and 0.000342 kPa and 0.000336 kPa
425.19 K	0.000418 kPa and 0.000424 kPa and 0.000416 kPa
429.21 K	0.000609 kPa and 0.000597 kPa
433.15 K	0.000855 kPa and 0.000839 kPa
437.19 K	0.001171 kPa and 0.001222 kPa and 0.001194 kPa

Conditions	Normal melting temperature [°C]
[1], Crystal	216.4

Conditions	Molar enthalpy of transition or fusion [kcal/mol]
[2]	6

c1ccc(-c2cccc3ccccc23)cc1 [1-phenylnaphthalene]
Conditions	molar enthalpy [kcal/mol]
[3]	19.4
